Results: patent US11214565B2, “Compound, compositions, and methods” (Denali Therapeutics Inc., priority 2015, dated 2022)

Molecular target: LRRK2 G2019S enzyme (Homo sapiens (Human), UniProt Q5S007, G2019S)
Experiment: LRRK2 G2019S TR-FRET biochemical kinase assay (LRRKtide substrate)
Details: Table C-2; 5 nM LRRK2, 134 μM ATP, 60 minute reaction, 23° C.
Outline: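 5 nM LRRK2 G2019S preincubated 20 min with LRRKtide and compound (3.162-fold dilution series) in Tris pH 7.5, MgCl2, EGTA, Brij-35, DTT, then reacted 60 min at 23 °C with 134 μM ATP. EDTA-stopped; pLRRKtide antibody detection, TR-FRET read at 340 nm excitation, 520/490–495 nm emission.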

LRRK2 G2019S enzyme, sequence (Q5S007 whole entry G2019S): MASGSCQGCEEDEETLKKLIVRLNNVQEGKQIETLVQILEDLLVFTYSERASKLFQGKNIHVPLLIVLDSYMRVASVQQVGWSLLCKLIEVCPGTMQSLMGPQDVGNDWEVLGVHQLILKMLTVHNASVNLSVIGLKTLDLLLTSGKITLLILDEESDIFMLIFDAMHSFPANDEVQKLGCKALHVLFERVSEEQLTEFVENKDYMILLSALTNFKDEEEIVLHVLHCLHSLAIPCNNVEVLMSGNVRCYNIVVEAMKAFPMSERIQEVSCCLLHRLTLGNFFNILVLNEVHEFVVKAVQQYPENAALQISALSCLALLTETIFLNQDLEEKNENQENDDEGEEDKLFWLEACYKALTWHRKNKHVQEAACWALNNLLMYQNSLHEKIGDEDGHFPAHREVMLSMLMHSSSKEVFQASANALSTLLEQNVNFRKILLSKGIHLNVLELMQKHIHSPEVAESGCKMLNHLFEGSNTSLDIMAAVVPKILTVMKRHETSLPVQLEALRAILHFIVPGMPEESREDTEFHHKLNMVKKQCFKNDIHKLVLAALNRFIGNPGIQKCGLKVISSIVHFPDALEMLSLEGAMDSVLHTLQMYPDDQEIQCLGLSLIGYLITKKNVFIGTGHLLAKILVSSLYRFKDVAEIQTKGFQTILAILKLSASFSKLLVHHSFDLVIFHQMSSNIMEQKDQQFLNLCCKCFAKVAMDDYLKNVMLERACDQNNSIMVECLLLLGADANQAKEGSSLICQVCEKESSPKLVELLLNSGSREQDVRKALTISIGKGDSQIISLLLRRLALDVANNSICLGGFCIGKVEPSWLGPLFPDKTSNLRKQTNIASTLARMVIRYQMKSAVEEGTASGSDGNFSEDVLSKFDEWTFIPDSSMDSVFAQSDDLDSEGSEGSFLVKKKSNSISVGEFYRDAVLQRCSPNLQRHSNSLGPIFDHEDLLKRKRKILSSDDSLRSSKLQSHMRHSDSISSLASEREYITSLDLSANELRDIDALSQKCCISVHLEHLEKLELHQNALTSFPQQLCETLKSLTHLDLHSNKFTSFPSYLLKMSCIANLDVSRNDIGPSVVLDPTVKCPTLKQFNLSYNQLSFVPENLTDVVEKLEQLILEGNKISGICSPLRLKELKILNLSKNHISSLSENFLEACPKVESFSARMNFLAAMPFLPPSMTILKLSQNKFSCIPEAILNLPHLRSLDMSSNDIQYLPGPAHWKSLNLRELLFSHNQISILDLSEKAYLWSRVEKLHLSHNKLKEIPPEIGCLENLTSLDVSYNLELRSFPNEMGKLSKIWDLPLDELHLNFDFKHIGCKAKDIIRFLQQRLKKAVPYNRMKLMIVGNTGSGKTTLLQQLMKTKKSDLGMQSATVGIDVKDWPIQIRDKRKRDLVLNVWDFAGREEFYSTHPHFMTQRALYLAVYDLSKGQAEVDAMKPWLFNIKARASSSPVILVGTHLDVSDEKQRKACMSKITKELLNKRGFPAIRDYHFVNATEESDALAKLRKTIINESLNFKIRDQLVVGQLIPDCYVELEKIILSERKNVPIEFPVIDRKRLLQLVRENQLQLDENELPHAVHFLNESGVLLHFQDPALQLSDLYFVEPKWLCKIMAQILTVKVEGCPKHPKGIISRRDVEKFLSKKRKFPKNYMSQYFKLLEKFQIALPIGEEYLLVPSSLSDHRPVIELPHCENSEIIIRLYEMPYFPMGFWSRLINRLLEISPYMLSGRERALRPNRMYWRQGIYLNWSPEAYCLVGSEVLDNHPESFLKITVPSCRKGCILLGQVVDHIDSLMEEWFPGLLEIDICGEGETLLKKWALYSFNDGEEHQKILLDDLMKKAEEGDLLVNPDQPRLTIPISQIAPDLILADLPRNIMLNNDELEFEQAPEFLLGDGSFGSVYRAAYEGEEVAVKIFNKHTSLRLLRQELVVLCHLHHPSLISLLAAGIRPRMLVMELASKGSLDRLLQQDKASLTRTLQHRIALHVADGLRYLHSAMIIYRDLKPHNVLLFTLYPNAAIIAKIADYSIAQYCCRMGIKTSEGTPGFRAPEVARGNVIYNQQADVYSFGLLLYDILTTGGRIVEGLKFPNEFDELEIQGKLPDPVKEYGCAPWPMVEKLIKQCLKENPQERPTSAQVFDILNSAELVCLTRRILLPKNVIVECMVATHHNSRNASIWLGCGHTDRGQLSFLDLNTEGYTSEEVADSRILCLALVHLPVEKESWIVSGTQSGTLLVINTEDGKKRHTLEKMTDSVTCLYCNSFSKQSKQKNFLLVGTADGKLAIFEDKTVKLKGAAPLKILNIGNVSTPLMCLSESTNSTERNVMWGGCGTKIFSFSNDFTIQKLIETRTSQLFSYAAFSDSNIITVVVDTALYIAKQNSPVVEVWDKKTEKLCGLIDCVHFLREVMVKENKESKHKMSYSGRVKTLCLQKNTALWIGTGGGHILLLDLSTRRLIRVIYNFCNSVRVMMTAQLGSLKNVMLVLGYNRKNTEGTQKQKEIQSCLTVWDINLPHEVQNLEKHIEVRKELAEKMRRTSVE

Row | IC50 | Compound
1 | < 50 nM | Cc1nn(C(C)(C)c2ncn(C)n2)cc1Nc1nc(C2CC2)c2c(F)c[nH]c2n1 [Compound C-29]
2 | < 50 nM | Cc1nn(C(CF)CF)cc1Nc1nc(C2CC2)c2cc[nH]c2n1 [Compound C-30]
3 | < 50 nM | Cc1c(Nc2nc(C3CC3)c3cc[nH]c3n2)cnn1C(CF)CF [Compound C-31]
4 | < 50 nM | Cc1c(Nc2nc(C3CC3)c3c(Cl)c[nH]c3n2)cnn1C(CF)CF [Compound C-32]
5 | > 100 nM | Cc1nc2c(C3CC3)nc(Nc3cnn(C)c3C)nc2[nH]1 [Compound C-33]
6 | > 100 nM | Cc1nc2c(C3CC3)nc(Nc3cn(C)nc3C)nc2[nH]1 [Compound C-34]
7 | > 100 nM | Cc1cn(C)nc1Nc1cc(C2CC2)c2nc[nH]c2n1 [Compound C-35]
8 | < 50 nM | Cc1nn(C2(C)CC2)cc1Nc1nc(C2CC2)c2nc[nH]c2n1 [Compound C-36]
9 | < 50 nM | Cc1nn(C(C)(C)c2ccn(C)n2)cc1Nc1nc(C2CC2)c2nc[nH]c2n1 [Compound C-37]
10 | < 50 nM | Clc1c(Nc2nc(C3CC3)c3nc[nH]c3n2)cnn1CC1CC1 [Compound C-38]
11 | < 50 nM | Cc1c(Nc2nc(C3CC3)c3c(C#N)c[nH]c3n2)cnn1C(F)F [Compound C-39]
12 | < 50 nM | Cc1nn(C(F)F)cc1Nc1nc(C2CC2)c2c(C#N)c[nH]c2n1 [Compound C-40]
13 | < 50 nM | Cc1nn(C(C)(C)C#N)cc1Nc1nc(C2CC2)c2c(C3CC3)c[nH]c2n1 [Compound C-41]
14 | < 50 nM | Cc1nn(C(C)(C)C#N)cc1Nc1nc(C2CC2)c2c(C(F)(F)F)c[nH]c2n1 [Compound C-42]
15 | < 50 nM | Cc1c(Nc2nc(C3CC3)c3c(C#N)c[nH]c3n2)cnn1C1CC2CC2C1 (centres unmarked) [Compound C-43]
16 | < 50 nM | Cc1nn(C2CC3CC3C2)cc1Nc1nc(C2CC2)c2c(C#N)c[nH]c2n1 (centres unmarked) [Compound C-44]
17 | < 50 nM | Cc1c(Nc2nc(C3CC3)c3nc[nH]c3n2)cnn1C1CC2CC2C1 (centres unmarked) [Compound C-45]
18 | < 50 nM | Cc1nn(C2CC3CC3C2)cc1Nc1nc(C2CC2)c2nc[nH]c2n1 (centres unmarked) [Compound C-46]
19 | < 50 nM | Cc1c(Nc2nc(C3CC3)c3c(C#N)c[nH]c3n2)cnn1CCOC(F)F [Compound C-47]
20 | < 50 nM | Cc1c(Nc2nc(C3CC3)c3nc[nH]c3n2)cnn1CCOC(F)F [Compound C-48]
21 | < 50 nM | Cc1c(Nc2nc(C3CC3)c3nc[nH]c3n2)cnn1C1CC1 [Compound C-49]
22 | < 50 nM | Cc1nn(C2CC2)cc1Nc1nc(C2CC2)c2nc[nH]c2n1 [Compound C-50]
23 | < 50 nM | Cc1nn(CC2CC2)cc1Nc1nc(C2CC2)c2nc[nH]c2n1 [Compound C-52]
24 | < 50 nM | Cc1c(Nc2cc(C3CC3)c3c(C#N)c[nH]c3n2)cnn1C1CC1 [Compound C-53]
25 | < 50 nM | Cc1nn(C2CC2)cc1Nc1cc(C2CC2)c2c(C#N)c[nH]c2n1 [Compound C-54]
26 | < 50 nM | Cc1nn(C(CF)CF)cc1Nc1nc(C2CC2)c2c(Cl)c[nH]c2n1 [Compound C-55]

Same assay, conditions: Table D-4; 5 nM LRRK2, 134 μM ATP, 60 minute reaction, 23° C.

Row | IC50 | Compound
27 | > 60 nM | CNc1nc(Nc2cn(CC3(CC#N)CC3)nc2C)ncc1C(F)(F)F [Compound D-1, 2-(1-((3-methyl-4-((4-(methylamino)-5-(trifluoromethyl)pyrimidin-2-yl)amino)-1H-pyrazol-1-yl)methyl)cyclopropyl)acetonitrile]
28 | < 30 nM | CNc1nc(Nc2cnn(C3CCn4ccnc43)c2C)ncc1C(F)(F)F [Compound D-2, N2-[1-(6,7-dihydro-5H-pyrrolo[1,2-a]imidazol-7-yl)-5-methyl-pyrazol-4-yl]-N4-methyl-5-(trifluoromethyl)pyrimidine-2,4-diamine]
29 | > 60 nM | CNc1nc(Nc2cn(CC3(Cn4cncn4)CC3)nc2C)ncc1C(F)(F)F [Compound D-5, N2-(1-((1-((1H-1,2,4-triazol-1-yl)methyl)cyclopropyl)methyl)-3-methyl-1H-pyrazol-4-yl)-N4-methyl-5-(trifluoromethyl)pyrimidine-2,4-diamine]
30 | < 30 nM | CNc1nc(Nc2cnn(CC3(Cn4cncn4)CC3)c2C)ncc1C(F)(F)F [Compound D-6, N2-(1-((1-((1H-1,2,4-triazol-1-yl)methyl)cyclopropyl)methyl)-5-methyl-1H-pyrazol-4-yl)-N4-methyl-5-(trifluoromethyl)pyrimidine-2,4-diamine]
31 | < 30 nM | CNc1nc(Nc2cnn(C3CCc4nnc(C)n4C3)c2C)ncc1C(F)(F)F [Compound D-7, N4-methyl-N2-[5-methyl-1-(3-methyl-5,6,7,8-tetrahydro-[1,2,4]triazolo[4,3-a]pyridin-6-yl)pyrazol-4-yl]-5-(trifluoromethyl)pyrimidine-2,4-diamine]
32 | > 60 nM | CNc1nc(Nc2cn(C3CCc4nnc(C)n4C3)nc2C)ncc1C(F)(F)F [Compound D-8, N4-methyl-N2-[3-methyl-1-(3-methyl-5,6,7,8-tetrahydro-[1,2,4]triazolo[4,3-a]pyridin-6-yl)pyrazol-4-yl]-5-(trifluoromethyl)pyrimidine-2,4-diamine]
33 | < 30 nM | CNc1nc(Nc2cnn(CCOC(F)F)c2C)ncc1C(F)(F)F [Compound D-9, N2-[1-[2-(difluoromethoxy)ethyl]-5-methyl-pyrazol-4-yl]-N4-methyl-5-(trifluoromethyl)pyrimidine-2,4-diamine]
34 | 30 to 60 nM | CNc1nc(Nc2cn(CCOC(F)F)nc2C)ncc1C(F)(F)F [Compound D-10, N2-[1-[2-(difluoromethoxy)ethyl]-3-methyl-pyrazol-4-yl]-N4-methyl-5-(trifluoromethyl)pyrimidine-2,4-diamine]
35 | < 30 nM | CNc1nc(Nc2cnn(CCOC(F)F)c2Cl)ncc1C(F)(F)F [Compound D-11, N2-[5-chloro-1-[2-(difluoromethoxy)ethyl]pyrazol-4-yl]-N4-methyl-5-(trifluoromethyl)pyrimidine-2,4-diamine]
36 | < 30 nM | CNc1nc(Nc2cnn(CC3(COC)CC3)c2Cl)ncc1C(F)(F)F [Compound D-12, N2-[5-chloro-1-[[1-(methoxymethyl)cyclopropyl]methyl]pyrazol-4-yl]-N4-methyl-5-(trifluoromethyl)pyrimidine-2,4-diamine]
37 | < 30 nM | CNc1nc(Nc2cn(C(F)(F)C#N)nc2C)ncc1C(F)(F)F [Compound D-13, 2,2-difluoro-2-[3-methyl-4-[[4-(methylamino)-5-(trifluoromethyl)pyrimidin-2-yl]amino]pyrazol-1-yl]acetonitrile]
38 | < 30 nM | CNc1nc(Nc2cn(C(F)(F)C(N)=O)nc2C)ncc1C(F)(F)F [Compound D-14, 2,2-difluoro-2-[3-methyl-4-[[4-(methylamino)-5-(trifluoromethyl)pyrimidin-2-yl]amino]pyrazol-1-yl]acetamide]
39 | < 30 nM | CCNc1nc(Nc2cnn(CCOC(F)F)c2C)ncc1C(F)(F)F [Compound D-15, N2-[1-[2-(difluoromethoxy)ethyl]-5-methyl-pyrazol-4-yl]-N4-ethyl-5-(trifluoromethyl)pyrimidine-2,4-diamine]
40 | < 30 nM | CCNc1nc(Nc2cn(CCOC(F)F)nc2C)ncc1C(F)(F)F [Compound D-16, N2-[1-[2-(difluoromethoxy)ethyl]-3-methyl-pyrazol-4-yl]-N4-ethyl-5-(trifluoromethyl)pyrimidine-2,4-diamine]
41 | < 30 nM | CNc1nc(Nc2cnn(CC(C)OC(F)F)c2C)ncc1C(F)(F)F [Compound D-17]
42 | > 60 nM | CNc1nc(Nc2cn(CC(C)OC(F)F)nc2C)ncc1C(F)(F)F [Compound D-18]
43 | < 30 nM | CNc1nc(Nc2cnn(C[C@@H](C)OC(F)F)c2C)ncc1C(F)(F)F [Compound D-19, N2-[1-[(2R)-2-(difluoromethoxy)propyl]-5-methyl-pyrazol-4-yl]-N4-methyl-5-(trifluoromethyl)pyrimidine-2,4-diamine]
44 | > 60 nM | CNc1nc(Nc2cn(C[C@@H](C)OC(F)F)nc2C)ncc1C(F)(F)F [Compound D-20, N2-[1-[(2R)-2-(difluoromethoxy)propyl]-3-methyl-pyrazol-4-yl]-N4-methyl-5-(trifluoromethyl)pyrimidine-2,4-diamine]
45 | 30 to 60 nM | CNc1nc(Nc2cn(C(C)COC(F)F)nc2C)ncc1C(F)(F)F [Compound D-21, N2-[1-[2-(difluoromethoxy)-1-methyl-ethyl]-3-methyl-pyrazol-4-yl]-N4-methyl-5-(trifluoromethyl)pyrimidine-2,4-diamine]
46 | < 30 nM | CNc1nc(Nc2cnn([C@H]3C[C@H](OC(F)F)C3)c2C)ncc1C(F)(F)F [Compound D-25, trans-N2-[1-[3-(difluoromethoxy)cyclobutyl]-5-methyl-pyrazol-4-yl]-N4-methyl-5-(trifluoromethyl)pyrimidine-2,4-diamine]
47 | < 30 nM | CNc1nc(Nc2cn([C@H]3C[C@H](OC(F)F)C3)nc2C)ncc1C(F)(F)F [Compound D-26, trans-N2-[1-[3-(difluoromethoxy)cyclobutyl]-3-methyl-pyrazol-4-yl]-N4-methyl-5-(trifluoromethyl)pyrimidine-2,4-diamine]
48 | < 30 nM | CNc1nc(Nc2cn([C@H]3C[C@@H](n4cccn4)C3)nc2C)ncc1C(F)(F)F [Compound D-27, cis-N4-methyl-N2-[3-methyl-1-(3-pyrazol-1-ylcyclobutyl)pyrazol-4-yl]-5-(trifluoromethyl)pyrimidine-2,4-diamine]
49 | < 30 nM | CNc1nc(Nc2cn([C@H]3C[C@@H](S(C)(=O)=O)C3)nc2C)ncc1C(F)(F)F [Compound D-28, cis-N4-methyl-N2-[3-methyl-1-(3-methylsulfonylcyclobutyl)pyrazol-4-yl]-5-(trifluoromethyl)pyrimidine-2,4-diamine]
50 | < 30 nM | CNc1nc(Nc2cnn([C@H]3C[C@H](CC#N)C3)c2C)ncc1C(F)(F)F [Compound D-29, trans-2-[3-[4-[[5-(difluoromethyl-fluoranyl)-4-(methylamino)pyrimidin-2-yl]amino]-5-methyl-pyrazol-1-yl]cyclobutyl]acetonitrile]
